According to PMC6539005, “Half-Wave Potentials and In Vitro Cytotoxic Evaluation of 3-Acylated 2,5-Bis(phenylamino)-1,4-benzoquinones on Cancer Cells” (Molecules, 2019):

Assays:
[1] = system: GSR; experiment: qPCR relative gene expression in T24 cells, GSR; format: cell-based, human; settings: 48 h; 2c at 32 µM, 2d at 68 µM; normalized to B2M, 2^−ΔΔCt vs vehicle; mean ± SEM, n = 5
Protocol: (§1) The T24 cells were cultured as previously mentioned. They were seeded into 6-well plates (2 × 10^5 cells/well) and, after 24 h of incubation, they were treated for 48 h with 2c and 2d (at 32 and 68 µM, respectively). Afterwards, they were washed with phosphate-buffered saline. The cellular lysate was prepared with E.Z.N.A.® RNA-Lock Reagent (Omega Bio-tek, Norcross, GA, USA) to preserve and immediately stabilize the total RNA for the subsequent gene expression assays. The total RNA isolated from the cells using the E.Z.N.A.® HP Total RNA Isolation Kit (Omega Bio-tek) was reverse-transcribed to cDNA using the AffinityScript QPCR cDNA Synthesis Kit (Agilent Technologies, Santa Clara, CA, USA) and 1000 ng of the RNA sample.
(§2) The cDNA synthesized was employed for qPCR using Brilliant III Ultra-Fast SYBR® Green QPCR Master Mix (Agilent Technologies) in a Mx3000P qPCR System (Agilent Technologies), employing a 96-well plate with 20 μL of PCR reaction per well and 10 pmol each of forward and reverse gene-specific primers. Ten genes were analyzed (see Table 4). The relative gene expressions were determined using Beta-2-microglobulin (B2M) as housekeeping, and the delta-delta Ct method (2^−ΔΔCt method) with regard to the vehicle-treated group (i.e., the reference group). Five biological replicates were used from each group (treated and reference group). […]

[2] = system: DU-145 (prostate) cells; experiment: MTT cytotoxicity assay, DU-145; format: cell-based; settings: Homo sapiens, 48 h incubation (b12: 72 h), n = 3, read-out: IC50 ± SEM DU-145
Protocol: (§3) The 3-acyl-2,5-bis(phenylamino)-1,4-benzoquinones 2a–q were evaluated for their in vitro cytotoxic activities against normal human embryonic kidney cells (HEK-293 cells) and two human cancer cell lines (T24 and DU-145 cells) in 72 h drug exposure assays. The cytotoxic activities of the new compounds were measured using conventional microculture tetrazolium reduction assays. The cytotoxic activities are expressed in terms of IC50. Doxorubicin, a clinically used anti-cancer agent, was taken as a positive control.
(§4) Human cancer cell lines T24 (bladder) and DU-145 (prostate), and non-tumor HEK-293 cells were obtained from the American Type Culture Collection (ATCC, Manassas, VA, USA). The cultures were maintained at a density of 1× 10^5 cells/mL and the medium was changed at 48- to 72-h intervals. They were cultured in high-glucose Dulbecco’s modified Eagle medium (Gibco, Grand Island, NY, USA) supplemented with 10% fetal calf serum, penicillin (100 U/mL), and streptomycin (100 μg/mL). All cultures were kept at 37 °C in 95% air/5% CO2 at 100% humidity. Phosphate-buffered saline (PBS) was purchased from Gibco. Cells were incubated at the indicated times at 37 °C, with or without quinones at various concentrations.
(§5) The cytotoxicity of the quinones was assessed by following the reduction of MTT (3-(4,5-Dimethylthiazol-2-yl)-2,5-diphenyltetrazolium bromide) to formazan blue. Cells were seeded into 96-well plates at a density of 10,000 cells/well for 24 h and then incubated for 48 h, with or without the quinone derivatives. Doxorubicin was used as the standard chemotherapeutic agent (positive control). Cells were then washed twice with warm PBS and incubated with MTT (0.5 mg/mL) for 2 hours at 37 °C. Blue formazan crystals were solubilized by adding 100 µL DMSO/well, and the optical density of the coloured solutions was subsequently read at 550 nm. Results are expressed as percentage of MTT reduction, compared to untreated control conditions. The IC50 values were calculated using the GraphPad Prism software (San Diego, CA, USA).

[3] = system: HEK-293 kidney cells; experiment: MTT cytotoxicity assay, HEK-293; format: cell-based; settings: Homo sapiens, HEK293, non-tumor cells, 48 h incubation (b12: 72 h), n = 3, read-out: IC50 ± SEM HEK-293
Protocol: as §3, §4, §5

[4] = system: mTOR; experiment: qPCR relative gene expression in T24 cells, mTOR; format: cell-based, human; settings: 48 h; 2c at 32 µM, 2d at 68 µM; normalized to B2M, 2^−ΔΔCt vs vehicle; mean ± SEM, n = 5
Protocol: as §1, §2

[5] = system: BCL2; experiment: qPCR relative gene expression in T24 cells, BCL2; format: cell-based, human; settings: 48 h; 2c at 32 µM, 2d at 68 µM; normalized to B2M, 2^−ΔΔCt vs vehicle; mean ± SEM, n = 5
Protocol: as §1, §2

[6] = system: HDAC4; experiment: qPCR relative gene expression in T24 cells, HDAC4; format: cell-based, human; settings: 48 h; 2c at 32 µM, 2d at 68 µM; normalized to B2M, 2^−ΔΔCt vs vehicle; mean ± SEM, n = 5
Protocol: as §1, §2

[7] = system: CDC25A; experiment: qPCR relative gene expression in T24 cells, CDC25A; format: cell-based, human; settings: 48 h; 2c at 32 µM, 2d at 68 µM; normalized to B2M, 2^−ΔΔCt vs vehicle; mean ± SEM, n = 5
Protocol: as §1, §2

[8] = system: T24 (bladder) cells; experiment: MTT cytotoxicity assay, T24; format: cell-based, human; settings: Homo sapiens, 48 h incubation (b12: 72 h), n = 3, read-out: IC50 ± SEM T24
Protocol: as §3, §4, §5

[9] = system: TP53; experiment: qPCR relative gene expression in T24 cells, TP53; format: cell-based, human; settings: 48 h; 2c at 32 µM, 2d at 68 µM; normalized to B2M, 2^−ΔΔCt vs vehicle; mean ± SEM, n = 5
Protocol: as §1, §2

[10] = system: HRAS; experiment: qPCR relative gene expression in T24 cells, HRAS; format: cell-based, human; settings: 48 h; 2c at 32 µM, 2d at 68 µM; normalized to B2M, 2^−ΔΔCt vs vehicle; mean ± SEM, n = 5
Protocol: as §1, §2

[11] = system: GSTP1; experiment: qPCR relative gene expression in T24 cells, GSTP1; format: cell-based, human; settings: 48 h; 2c at 32 µM, 2d at 68 µM; normalized to B2M, 2^−ΔΔCt vs vehicle; mean ± SEM, n = 5
Protocol: as §1, §2

[12] = system: HDAC3; experiment: qPCR relative gene expression in T24 cells, HDAC3; format: cell-based, human; settings: 48 h; 2c at 32 µM, 2d at 68 µM; normalized to B2M, 2^−ΔΔCt vs vehicle; mean ± SEM, n = 5
Protocol: as §1, §2

[13] = Half-wave potentials by cyclic voltammetry in acetonitrile; format: physicochemical; settings: rt, Pt electrode, vs non-aqueous Ag/Ag+, given as negative of potential; for −E^I 1/2: first one-electron reduction, 0.1 M tetraethylammonium tetrafluoroborate; for −E^II 1/2: second one-electron reduction
Protocol: The members of the 3-acyl-2,5-bis(phenylamino)-1,4-benzoquinone series 2a–q were evaluated for their half-wave potentials (E^I 1/2 and E^II 1/2). They were measured by cyclic voltammetry in acetonitrile at room temperature, using a platinum electrode and 0.1 M tetraethylamoniumtetrafluoroborate as the supporting electrolyte. The voltammograms were run in the potential range from 0.0 to −2.0 V versus non-aqueous Ag/Ag^+.

[14] = system: T24 and DU-145 cells; experiment: MTT cytotoxicity assay, both cancer cell lines; format: cell-based; settings: Homo sapiens; mean of T24 and DU-145 IC50
Protocol: as §3, §4, §5

[15] = system: human colon adenocarcinoma; design: method as in PMID 3746824; settings: cited from earlier work
[16] = system: leukemia L1210; design: method as in PMID 3746824; settings: cited from earlier work

−E^I 1/2 [13] [mV] | −E^II 1/2 [13] [mV] | SMILES | Relative Expression Levels in T24 Cells, GSR [1] | IC50 [2] [µM] | IC50 [3] [µM] | Relative Expression Levels in T24 Cells, mTOR [4] | Relative Expression Levels in T24 Cells, BCL2 [5] | Relative Expression Levels in T24 Cells, HDAC4 [6] | Relative Expression Levels in T24 Cells, CDC25A [7] | IC50 [8] [µM] | Relative Expression Levels in T24 Cells, TP53 [9] | Relative Expression Levels in T24 Cells, HRAS [10] | Relative Expression Levels in T24 Cells, GSTP1 [11] | Relative Expression Levels in T24 Cells, HDAC3 [12] | IC50 [14] [µM] | in vitro inhibitory activity against human colon adenocarcinoma proliferation [15] | activity against the leukemia L1210 screening in vitro [16]
570 | 1090 | CCCCCC(=O)C1=C(Nc2ccccc2)C(=O)C=C(Nc2ccccc2)C1=O [2c, 3-Hexanoyl-2,5-bis(phenylamino)-1,4-benzoquinone] | 0.96 ± 0.05 | 45.2 ± 4.5 | > 100 | 0.99 ± 0.13 | 1.28 ± 0.15 | 1.08 ± 0.13 | 1.54 ± 0.13 | 16.3 ± 1.7 | 1.06 ± 0.11 | 1.07 ± 0.13 | 0.9 ± 0.08 | 1.03 ± 0.15 | 30.7 |  | 
590 | 910 | CCCCCCCC(=O)C1=C(Nc2ccccc2)C(=O)C=C(Nc2ccccc2)C1=O [2d, 3-Octanoyl-2,5-bis(phenylamino)-1,4-benzoquinone] | 1.07 ± 0.04 | 23.5 ± 2.1 | > 100 | 0.95 ± 0.02 | 0.8 ± 0.04 | 1.01 ± 0.02 | 1.07 ± 0.03 | 34 ± 3.7 | 1.01 ± 0.04 | 1.33 ± 0.06 | 1.21 ± 0.04 | 1.02 ± 0.05 | 28.7 |  | 
 |  | CC(C)c1ccc(NC2=C(Cl)C(=O)C(Nc3ccc(C(C)C)cc3)=C(Cl)C2=O)cc1 [B] |  |  |  |  |  |  |  |  |  |  |  |  |  | good in vitro inhibitory activity | active
